Assays:
D(3) dopamine receptor = D(3) dopamine receptor (Homo sapiens, UniProt P35462)
[1] = target: 5-hydroxytryptamine receptor 2A (Homo sapiens, UniProt P28223)
Histamine H1 receptor = Histamine H1 receptor (Cavia porcellus, UniProt P31389)
Histamine H2 receptor = Histamine H2 receptor (Cavia porcellus, UniProt P47747)
[2] = target: Gamma-aminobutyric acid (GABA) B receptor 1 (Rattus norvegicus, UniProt Q6MFX8)
[3] = target: 5-hydroxytryptamine receptor 7 (Homo sapiens, UniProt P34969)
D(4) dopamine receptor = D(4) dopamine receptor (Homo sapiens, UniProt P21917)
[4] = target: 5-hydroxytryptamine receptor 3A (Mus musculus, UniProt P23979)
[5] = target: 5-hydroxytryptamine receptor 3A (Homo sapiens, UniProt P46098)
Chain of 5-hydroxytryptamine receptor 3A (Homo sapiens, UniProt P46098) (P46098 whole entry): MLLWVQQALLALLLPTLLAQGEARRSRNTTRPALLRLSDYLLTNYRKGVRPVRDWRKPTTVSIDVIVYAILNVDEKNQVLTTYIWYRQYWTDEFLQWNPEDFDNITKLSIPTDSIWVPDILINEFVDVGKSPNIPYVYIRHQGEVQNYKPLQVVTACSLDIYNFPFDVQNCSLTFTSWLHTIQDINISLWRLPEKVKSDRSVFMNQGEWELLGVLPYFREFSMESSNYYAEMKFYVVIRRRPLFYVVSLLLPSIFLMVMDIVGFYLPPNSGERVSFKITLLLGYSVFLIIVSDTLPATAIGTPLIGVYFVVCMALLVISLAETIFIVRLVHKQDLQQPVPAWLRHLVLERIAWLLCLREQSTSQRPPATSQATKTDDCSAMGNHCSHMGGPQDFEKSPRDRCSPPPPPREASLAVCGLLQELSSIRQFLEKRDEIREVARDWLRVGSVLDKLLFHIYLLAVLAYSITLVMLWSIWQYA

[6] = target: Muscarinic acetylcholine receptor M3 (Homo sapiens, UniProt P20309)
Chain of Muscarinic acetylcholine receptor M3 (P20309 whole entry): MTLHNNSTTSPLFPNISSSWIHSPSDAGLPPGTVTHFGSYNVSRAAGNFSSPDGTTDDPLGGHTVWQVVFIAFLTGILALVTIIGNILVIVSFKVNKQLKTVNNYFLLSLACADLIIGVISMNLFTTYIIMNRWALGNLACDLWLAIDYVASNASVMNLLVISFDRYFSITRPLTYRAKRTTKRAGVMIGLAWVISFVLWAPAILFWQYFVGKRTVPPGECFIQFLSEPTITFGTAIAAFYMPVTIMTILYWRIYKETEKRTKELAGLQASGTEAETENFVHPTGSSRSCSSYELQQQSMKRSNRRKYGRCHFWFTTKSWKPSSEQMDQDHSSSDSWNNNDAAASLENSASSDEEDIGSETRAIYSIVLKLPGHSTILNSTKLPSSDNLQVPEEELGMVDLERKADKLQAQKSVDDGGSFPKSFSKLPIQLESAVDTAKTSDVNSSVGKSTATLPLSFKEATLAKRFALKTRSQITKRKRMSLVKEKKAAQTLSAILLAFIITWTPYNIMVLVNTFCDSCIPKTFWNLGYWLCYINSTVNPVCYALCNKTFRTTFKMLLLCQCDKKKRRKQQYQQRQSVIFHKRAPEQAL

D(2) dopamine receptor = D(2) dopamine receptor (Homo sapiens, UniProt P14416)
[7] = target: Alpha-1A adrenergic receptor (Rattus norvegicus, UniProt P43140)
D(1A) dopamine receptor = D(1A) dopamine receptor (Homo sapiens, UniProt P21728)
[8] = target: Muscarinic acetylcholine receptor M2 (Homo sapiens, UniProt P08172)
[9] = target: Muscarinic acetylcholine receptor M1 (Homo sapiens, UniProt P11229)
Chain of Muscarinic acetylcholine receptor M1 (P11229 whole entry): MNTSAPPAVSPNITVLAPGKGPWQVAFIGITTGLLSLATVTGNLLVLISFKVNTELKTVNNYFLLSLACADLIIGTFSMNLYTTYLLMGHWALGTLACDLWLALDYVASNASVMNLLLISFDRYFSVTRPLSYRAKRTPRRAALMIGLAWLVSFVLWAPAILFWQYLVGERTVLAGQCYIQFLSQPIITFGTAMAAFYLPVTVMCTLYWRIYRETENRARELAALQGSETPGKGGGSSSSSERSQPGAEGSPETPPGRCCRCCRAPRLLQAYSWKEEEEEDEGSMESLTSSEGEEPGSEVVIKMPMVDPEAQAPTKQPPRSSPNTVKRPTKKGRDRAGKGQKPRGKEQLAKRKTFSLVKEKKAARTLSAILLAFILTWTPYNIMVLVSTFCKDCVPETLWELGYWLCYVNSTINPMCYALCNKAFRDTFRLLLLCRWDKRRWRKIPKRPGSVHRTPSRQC

[10] = target: Gamma-aminobutyric acid receptor subunit alpha-1 (Rattus norvegicus, UniProt P62813)
[11] = target: Alpha-2C adrenergic receptor (Rattus norvegicus, UniProt P22086)
Chain of Alpha-2C adrenergic receptor (P22086 whole entry): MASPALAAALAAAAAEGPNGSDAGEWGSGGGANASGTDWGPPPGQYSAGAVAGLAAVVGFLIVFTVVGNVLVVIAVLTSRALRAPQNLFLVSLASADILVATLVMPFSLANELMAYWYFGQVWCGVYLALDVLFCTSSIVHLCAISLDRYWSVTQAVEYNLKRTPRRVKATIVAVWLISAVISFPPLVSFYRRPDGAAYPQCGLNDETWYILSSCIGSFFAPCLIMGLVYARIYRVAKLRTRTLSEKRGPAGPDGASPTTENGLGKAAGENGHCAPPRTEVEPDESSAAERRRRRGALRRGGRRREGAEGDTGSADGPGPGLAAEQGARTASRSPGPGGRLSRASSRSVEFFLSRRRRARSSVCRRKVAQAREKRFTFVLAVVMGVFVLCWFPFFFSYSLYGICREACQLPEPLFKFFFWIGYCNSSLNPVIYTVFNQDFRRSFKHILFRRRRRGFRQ

[12] = target: Muscarinic acetylcholine receptor M4 (Homo sapiens, UniProt P08173)
Chain of Muscarinic acetylcholine receptor M4 (P08173 whole entry): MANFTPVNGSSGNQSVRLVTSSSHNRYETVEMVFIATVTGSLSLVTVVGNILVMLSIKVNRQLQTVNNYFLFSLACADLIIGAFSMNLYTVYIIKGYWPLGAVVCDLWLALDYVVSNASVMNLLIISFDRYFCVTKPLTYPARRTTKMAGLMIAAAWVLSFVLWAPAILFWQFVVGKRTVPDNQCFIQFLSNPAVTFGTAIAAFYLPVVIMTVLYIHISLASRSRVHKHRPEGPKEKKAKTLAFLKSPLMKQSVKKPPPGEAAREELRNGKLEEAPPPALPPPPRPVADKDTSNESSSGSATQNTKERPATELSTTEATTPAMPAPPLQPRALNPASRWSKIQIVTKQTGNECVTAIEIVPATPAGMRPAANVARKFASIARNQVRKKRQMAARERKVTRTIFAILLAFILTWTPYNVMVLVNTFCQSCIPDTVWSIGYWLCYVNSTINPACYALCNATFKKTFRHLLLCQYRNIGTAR

Hrh3 protein = Hrh3 protein (Rattus norvegicus, UniProt Q5PPG3)
[13] = target: Muscarinic acetylcholine receptor M5 (Homo sapiens, UniProt P08912)
Chain of Muscarinic acetylcholine receptor M5 (P08912 whole entry): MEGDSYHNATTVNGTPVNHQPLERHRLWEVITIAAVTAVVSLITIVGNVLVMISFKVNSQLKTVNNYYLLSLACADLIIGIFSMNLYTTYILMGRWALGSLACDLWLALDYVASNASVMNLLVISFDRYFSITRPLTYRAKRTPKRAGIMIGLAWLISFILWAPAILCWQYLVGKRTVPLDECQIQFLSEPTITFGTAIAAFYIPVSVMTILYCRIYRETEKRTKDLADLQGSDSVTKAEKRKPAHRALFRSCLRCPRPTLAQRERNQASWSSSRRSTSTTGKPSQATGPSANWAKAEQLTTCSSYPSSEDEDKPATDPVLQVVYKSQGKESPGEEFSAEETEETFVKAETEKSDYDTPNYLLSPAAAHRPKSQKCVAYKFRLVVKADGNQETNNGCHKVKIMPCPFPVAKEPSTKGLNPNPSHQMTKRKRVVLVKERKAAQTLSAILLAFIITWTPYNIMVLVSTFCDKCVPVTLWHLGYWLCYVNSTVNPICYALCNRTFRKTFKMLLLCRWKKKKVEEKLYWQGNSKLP

[14] = target: 5-hydroxytryptamine receptor 2C (Homo sapiens, UniProt P28335)

Chain of Histamine H2 receptor (P47747 whole entry): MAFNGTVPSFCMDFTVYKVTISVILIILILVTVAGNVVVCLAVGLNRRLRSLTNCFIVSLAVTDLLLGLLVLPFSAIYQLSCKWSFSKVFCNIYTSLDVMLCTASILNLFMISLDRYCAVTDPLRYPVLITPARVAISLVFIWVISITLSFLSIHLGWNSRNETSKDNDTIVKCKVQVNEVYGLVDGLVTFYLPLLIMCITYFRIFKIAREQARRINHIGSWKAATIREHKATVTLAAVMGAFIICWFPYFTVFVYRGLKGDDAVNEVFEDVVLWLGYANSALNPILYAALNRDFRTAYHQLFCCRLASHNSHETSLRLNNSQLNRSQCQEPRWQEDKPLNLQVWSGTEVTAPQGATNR
Chain of 5-hydroxytryptamine receptor 7 (P34969 whole entry): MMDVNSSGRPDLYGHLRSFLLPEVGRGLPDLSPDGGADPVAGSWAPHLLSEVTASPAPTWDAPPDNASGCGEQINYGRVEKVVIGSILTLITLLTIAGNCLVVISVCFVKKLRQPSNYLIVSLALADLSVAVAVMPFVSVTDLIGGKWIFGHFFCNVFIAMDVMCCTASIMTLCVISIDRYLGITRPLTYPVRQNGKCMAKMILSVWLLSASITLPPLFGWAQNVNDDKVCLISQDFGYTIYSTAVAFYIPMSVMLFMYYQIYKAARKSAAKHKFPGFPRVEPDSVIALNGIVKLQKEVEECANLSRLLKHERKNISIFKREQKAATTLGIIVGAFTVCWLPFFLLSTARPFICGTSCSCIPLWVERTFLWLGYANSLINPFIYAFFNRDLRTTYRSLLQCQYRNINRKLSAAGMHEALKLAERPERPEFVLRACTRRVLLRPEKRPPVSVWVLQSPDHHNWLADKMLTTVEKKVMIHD
Chain of 5-hydroxytryptamine receptor 2A (P28223 whole entry): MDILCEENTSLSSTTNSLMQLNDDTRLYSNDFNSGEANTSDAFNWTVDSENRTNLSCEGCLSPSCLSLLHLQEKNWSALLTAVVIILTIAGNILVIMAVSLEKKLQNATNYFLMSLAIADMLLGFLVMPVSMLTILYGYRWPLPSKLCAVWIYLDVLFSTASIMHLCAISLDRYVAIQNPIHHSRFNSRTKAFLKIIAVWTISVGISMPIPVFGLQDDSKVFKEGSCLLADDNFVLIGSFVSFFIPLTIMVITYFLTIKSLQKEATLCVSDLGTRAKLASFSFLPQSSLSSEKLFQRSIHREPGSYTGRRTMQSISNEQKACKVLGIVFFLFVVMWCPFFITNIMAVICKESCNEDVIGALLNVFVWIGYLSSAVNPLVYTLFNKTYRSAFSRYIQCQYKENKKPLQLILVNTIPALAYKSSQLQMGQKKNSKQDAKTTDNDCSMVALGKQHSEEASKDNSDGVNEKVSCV
Chain of Histamine H1 receptor (P31389 whole entry): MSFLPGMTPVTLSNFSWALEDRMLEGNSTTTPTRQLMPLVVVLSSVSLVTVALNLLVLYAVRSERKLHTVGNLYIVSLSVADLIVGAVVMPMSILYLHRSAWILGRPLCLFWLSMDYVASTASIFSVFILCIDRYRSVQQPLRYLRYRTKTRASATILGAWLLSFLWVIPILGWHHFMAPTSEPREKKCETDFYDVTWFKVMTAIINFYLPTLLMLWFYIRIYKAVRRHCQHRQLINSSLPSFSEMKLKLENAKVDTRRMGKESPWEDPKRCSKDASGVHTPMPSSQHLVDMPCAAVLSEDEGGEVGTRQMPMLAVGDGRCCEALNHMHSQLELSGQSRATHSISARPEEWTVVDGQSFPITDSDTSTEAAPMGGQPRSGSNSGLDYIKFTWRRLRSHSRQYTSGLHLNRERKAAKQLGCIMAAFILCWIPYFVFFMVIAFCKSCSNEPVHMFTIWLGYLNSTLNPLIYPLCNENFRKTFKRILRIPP

- Ki (D(3) dopamine receptor): 2.5 nM
- Ki [1]: 1.5 nM
- Ki (Histamine H1 receptor): 9.3 nM
- Ki (Histamine H2 receptor): 351 nM
- Ki [2]: > 10000 nM
- Ki [3]: 22 nM
- Ki (D(4) dopamine receptor): 5.3 nM
- Ki [4]: 75 nM
- Ki [5]: 2940 nM
- Ki [6]: 32 nM
- Ki (D(2) dopamine receptor): 5.8 nM
- Ki [7]: 2.3 nM
- Ki (D(1A) dopamine receptor): 3.8 nM
- Ki [8]: 42 nM
- Ki [9]: 13 nM
- Ki [10]: > 10000 nM
- Ki [11]: 1320 nM
- Ki [12]: 12 nM
- Ki (Hrh3 protein): > 10000 nM
- Ki [13]: 35 nM
- Ki [14]: 12 nM
Compound: CC(CN(C)C)CN1c2ccccc2Sc2ccc(C#N)cc21 (stereo unspecified) [CAS_62865]

Source: BindingDB's records for doi:10.1016/s0006-2952(02)01515-0 (Aventis Pharma, 2003)
